Laboratory results taken from patent US20240401144A2, “PRIMER-PROBE COMPOSITION, KIT, AND DETECTION METHOD” (ASCENTAWITS PHARMACEUTICALS, LTD., priority 2021, published 2024).

Tests used:
[1] = tested on: hepatocellular carcinoma cell lines; assay: Ex vivo proliferation assay, group of hepatocellular carcinoma cell lines (summary); assay type: cell-based, human
Experimental: (§1) Exponentially growing cells were inoculated. After 24 h, the test compound OBI-3424 was added. After addition of the test compound OBI-3424, plates were incubated in a standard tissue incubator at 37° C. for the indicated hours. At the end of the experiment, viable cells were detected using the CellTiter Glo (CTG) assay kit or AlamarBlue. Drug concentrations (IC50) resulting in 50% growth inhibition relative to untreated control were calculated using XLfit (IDBS, Boston, MA) or Prism 6 (GraphPad, San Diego, CA).
(§2) After exposing the hepatocellular carcinoma cell lines to compound OBI-3424 for 96 h and exposing the NSCLC cell lines to compound OBI-3424 for 72 h, the IC50 value was determined by ex vivo proliferation assay, and the expression of AKR1C3 protein in hepatocellular carcinoma cell lines was determined by Western blotting (tubulin was used as loading control). The expression data of AKR1C3 RNA in the hepatocellular carcinoma cell lines and in the NSCLC cell lines were from CrownBio database (https://db.crownbio.com/Crownbio/OncoExpress_Login.aspx).
On the other hand, cells expressing low AKR1C3 were less sensitive to OBI-3424, where IC50 values were higher than 1000 nM.

Reh cell line = assay: Ex vivo cytotoxicity assay, leukemia cell lines; assay type: cell-based; settings: Homo sapiens
Experimental: (§3) Leukemia cell lines were suspended in RPMI medium supplemented with FBS (Biosera), while ALL PDX cells were cultured in QBSF medium (Quality Biological Inc.,) supplemented with Flt-3 ligand (20 ng/ml, BioNovus Life Sciences) or IL7 (10-20 ng/ml, Jomar Life Research). Cells were inoculated according to the optimal cell density and incubated for 3h or overnight (37° C., 5% CO2). PDX cells and leukemia cell lines were treated with OBI-3424 ([…]) or medium control for 48 or 72 h, respectively. Viability was determined using Alamar Blue reduction assay or Cell Titer-Glo Luminescent Cell Viability Assay (Promega). The half-maximal inhibitory concentration (IC50) was used to calculate the interpolation of nonlinear regression curves by GraphPad Prism 7 software.
(§4) The expression levels of AKR1C3 protein was determined by Western blot analysis. The ex vivo cytotoxicity of OBI-3424 was determined using CellTiter-Glo assay and calculated as 50% maximum inhibitory concentration (IC50).

NOMO-1 cell line = assay: Ex vivo cytotoxicity assay, leukemia cell lines; assay type: cell-based; settings: Homo sapiens, AKR1C3 expression Medium
Experimental: as §3, §4

THP-1 cell line = assay: Ex vivo cytotoxicity assay, leukemia cell lines; assay type: cell-based; settings: Homo sapiens; Table 5: THP-1, AML (pediatric), 72 h; AKR1C3 expression Low
Experimental: as §3, §4

TF-1 cell line = assay: Ex vivo cytotoxicity assay, leukemia cell lines; assay type: cell-based; settings: Homo sapiens; Table 5: TF-1, Erythroleukemia, 72 h; AKR1C3 expression Medium
Experimental: as §3, §4

Kasumi-1 cell line = assay: Ex vivo cytotoxicity assay, leukemia cell lines; assay type: cell-based; settings: Homo sapiens; Table 5: Kasumi-1, AML, 72 h; AKR1C3 expression Low
Experimental: as §3, §4

PF-382 cell line = assay: Ex vivo cytotoxicity assay, leukemia cell lines; assay type: cell-based; settings: Homo sapiens
Experimental: as §3, §4

KG-1 cell line = assay: Ex vivo cytotoxicity assay, leukemia cell lines; assay type: cell-based; settings: Homo sapiens; Table 5: KG-1, Erythroleukemia, 72 h; AKR1C3 expression High
Experimental: as §3, §4

GR-ST cell line = assay: Ex vivo cytotoxicity assay, leukemia cell lines; assay type: cell-based; settings: Homo sapiens, B-ALL (transfected with G-CSF)
Experimental: as §3, §4

K-562 cell line = assay: Ex vivo cytotoxicity assay, leukemia cell lines; assay type: cell-based; settings: Homo sapiens, K562; Table 5: K-562, CML, 72 h; AKR1C3 expression Low
Experimental: as §3, §4

[2] = tested on: HL-60, clone 15 cell line; assay: Ex vivo cytotoxicity assay, leukemia cell lines; assay type: cell-based; settings: Homo sapiens; Table 5: HL-60, clone 15, APL, 72 h; AKR1C3 expression Low
Experimental: as §3, §4

ATN-1 cell line = assay: Ex vivo cytotoxicity assay, leukemia cell lines; assay type: cell-based; settings: Homo sapiens; Table 5: ATN-1, T-ALL (adult), 72 h; AKR1C3 expression Low
Experimental: as §3, §4

P30/OHK cell line = assay: Ex vivo cytotoxicity assay, leukemia cell lines; assay type: cell-based; settings: Homo sapiens; Table 5: P30/OHK, T-ALL (pediatric), 72 h; AKR1C3 expression Low
Experimental: as §3, §4

Mono-Mac-6 cell line = assay: Ex vivo cytotoxicity assay, leukemia cell lines; assay type: cell-based; settings: Homo sapiens; Table 5: Mono-Mac-6, AML-M5, 72 h; AKR1C3 expression Low
Experimental: as §3, §4

CCRF-CEM cell line = assay: Ex vivo cytotoxicity assay, leukemia cell lines; assay type: cell-based; settings: Homo sapiens
Experimental: as §3, §4

[3] = tested on: cell lines derived from T-ALL with high AKR1C3 expression; assay: Ex vivo cytotoxicity in leukemia cell lines (summary); assay type: cell-based, human
Experimental: as §3
In order to evaluate the potential anti-leukemia activity of OBI-3424, ex vivo cytotoxicity assays were performed on a variety of leukemia cell lines. […] The difference in IC50 values between cell lines with high/medium AKR1C3 expression and low expression was statistically significant (P=0.0016).

[4] = tested on: NCI-H2110 NSCLC cell line; assay: Ex vivo proliferation assay, 72 h exposure; assay type: cell-based; settings: Homo sapiens; NCI-H2110, 72 h of exposure; read-out: 3424 IC50
Experimental: as §1, §2

[5] = tested on: NCI-H2228 NSCLC cell line; assay: Ex vivo proliferation assay, 72 h exposure; assay type: cell-based; settings: Homo sapiens; NCI-H2228, 72 h of exposure; read-out: 3424 IC50
Experimental: as §1, §2

NCI-H23 NSCLC cell line = assay: Ex vivo proliferation assay, 72 h exposure; assay type: cell-based; settings: Homo sapiens; NCI-H23, 72 h of exposure; read-out: 3424 IC50
Experimental: as §1, §2

IC50 ([1]; Homo sapiens, cells expressing low AKR1C3): > 1000 nM | IC50 values ([1]; hepatocellular carcinoma cell lines with high AKR1C3 expression at both protein and RNA levels): low nanomolar range | IC50 [4]: 1.1 nM | IC50 [5]: 0.21 nM | IC50 (NCI-H23 NSCLC cell line): > 1000 nM
SMILES: C[C@H](OP(=O)(N1CC1)N1CC1)c1ccc([N+](=O)[O-])c(Oc2cccc(C(=O)N(C)C)c2)c1 [OBI-3424]
IC50 (Reh cell line; Table 4: Reh, BCP-ALL, AKR1C3 expression Medium, CellTiter-Glo): 3 nM | IC50 (Reh cell line; Table 5: Reh, ALL (non-T, non-B), 72 h, AKR1C3 expression Low): 3 nM | IC50 (NOMO-1 cell line; Table 4: NOMO-1, AML (acute monocytic), CellTiter-Glo): 11 nM | IC50 (NOMO-1 cell line; Table 5: NOMO-1, T-ALL (adult), 72 h): 11 nM | IC50 (THP-1 cell line): > 1000 nM | IC50 (TF-1 cell line): 2.8 nM | IC50 (Kasumi-1 cell line): > 1000 nM | IC50 (PF-382 cell line; Table 4: PF-382, T-ALL (child), AKR1C3 expression Strong, CellTiter-Glo): 15 nM | IC50 (PF-382 cell line; Table 5: PF-382, T-ALL (pediatric), 72 h, AKR1C3 expression Medium): 15 nM | IC50 (KG-1 cell line): 153 nM | IC50 (GR-ST cell line; Table 4: GR-ST, AKR1C3 expression Strong, CellTiter-Glo): 9.9 nM | IC50 (GR-ST cell line; Table 5: GR-ST, 72 h, AKR1C3 expression Medium): 9.9 nM | IC50 (K-562 cell line): > 1000 nM | IC50 [2]: 87 nM | IC50 (ATN-1 cell line): > 1000 nM | IC50 (P30/OHK cell line): > 1000 nM | IC50 (Mono-Mac-6 cell line): 29.8 nM | IC50 (CCRF-CEM cell line; Table 4: CCRF-CEM, T-ALL (child), AKR1C3 expression Strong, CellTiter-Glo): 3.7 nM | IC50 (CCRF-CEM cell line; Table 5: CCRF-CEM, T-ALL, 72 h, AKR1C3 expression High): 3.7 nM | IC50 values [3]: low nmol/L range
